Drawing on patent publication US6207669A, “Bicyclic heteroaromatic compounds as protein tyrosine kinase inhibitors” (Glaxo Wellcome Inc., priority 1996, dated 2001), this text covers IC50 for 16 compounds.

Molecules are shown by their SMILES. Counter-ions that a name gives are not always drawn. Like-named read-outs stand apart in the source and are kept apart here.

The target of assay [1] is T1, EGFr isolated from solubilised A431 cell membranes (Homo sapiens, UniProt P00533).
T1 construct: EGFr isolated from solubilised A431 cell membranes; endogenous in cells; host or cells: A431 cells (solubilised membranes)
T1 sequence (P00533 25-1210): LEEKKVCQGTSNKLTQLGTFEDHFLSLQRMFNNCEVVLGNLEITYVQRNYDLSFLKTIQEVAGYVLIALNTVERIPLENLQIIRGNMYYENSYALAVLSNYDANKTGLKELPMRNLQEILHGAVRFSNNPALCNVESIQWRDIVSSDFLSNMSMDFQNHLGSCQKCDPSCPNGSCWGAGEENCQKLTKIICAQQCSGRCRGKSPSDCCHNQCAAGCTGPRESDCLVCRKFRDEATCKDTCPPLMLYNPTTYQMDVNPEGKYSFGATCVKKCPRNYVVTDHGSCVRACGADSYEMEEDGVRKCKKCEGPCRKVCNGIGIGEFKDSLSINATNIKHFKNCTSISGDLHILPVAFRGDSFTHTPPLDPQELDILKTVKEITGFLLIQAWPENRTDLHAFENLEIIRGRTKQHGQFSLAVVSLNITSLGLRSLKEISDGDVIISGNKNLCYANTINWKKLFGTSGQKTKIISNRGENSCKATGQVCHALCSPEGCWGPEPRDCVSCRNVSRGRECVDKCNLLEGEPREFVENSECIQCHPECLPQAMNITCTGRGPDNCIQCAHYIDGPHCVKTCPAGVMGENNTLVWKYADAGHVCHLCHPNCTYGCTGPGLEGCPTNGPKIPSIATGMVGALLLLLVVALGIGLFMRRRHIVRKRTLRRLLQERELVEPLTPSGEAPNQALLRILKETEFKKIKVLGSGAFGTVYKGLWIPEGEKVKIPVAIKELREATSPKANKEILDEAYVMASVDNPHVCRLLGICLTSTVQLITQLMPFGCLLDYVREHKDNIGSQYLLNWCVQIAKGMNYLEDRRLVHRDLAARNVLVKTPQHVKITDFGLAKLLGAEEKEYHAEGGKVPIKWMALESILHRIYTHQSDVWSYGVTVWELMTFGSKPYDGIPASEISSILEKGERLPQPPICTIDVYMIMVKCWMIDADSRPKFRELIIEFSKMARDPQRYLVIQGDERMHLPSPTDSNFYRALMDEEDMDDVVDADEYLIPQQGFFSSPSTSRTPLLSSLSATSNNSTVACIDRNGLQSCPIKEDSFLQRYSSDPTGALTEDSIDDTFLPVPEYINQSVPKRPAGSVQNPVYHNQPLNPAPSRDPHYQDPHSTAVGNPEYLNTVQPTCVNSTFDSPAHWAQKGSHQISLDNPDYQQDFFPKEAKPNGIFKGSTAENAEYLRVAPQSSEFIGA
Kind of assay: Substrate phosphorylation assay, EGFr. Format: biochemical. The conditions noted are these: 30 minutes, room temperature, ATP and peptide at Km. As for the experimental part:
(§1) The substrate phosphorylation assays use baculovirus expressed, recombinant constructs of the intracellular domains of c-erbB-2 and c-erbB4 that are constitutively active and EGFr isolated from solubilised A431 cell membranes. The method measures the ability of the isolated enzymes to catalyse the transfer of the γ-phosphate from ATP onto tyrosine residues in a biotinylated synthetic peptide (Biotin-GluGluGluGluTyrPheGluLeuVal). The enzyme is incubated for 30 minutes, at room temperature, with 10 mM […], ATP and peptide at Km concentrations, and test compound (diluted from a 5 mM stock in DMSO, final DMSO concentration is 2%) in 40 mM HEPES buffer, pH 7.4. The reaction is stopped by the addition of EDTA (final concentration 0.15 mM) and a sample is transferred to a streptavidin-coated 96-well plate. The plate is washed and the level of phosphotyrosine on the peptide is determined using a Europium-labelled antiphosphotyrosine antibody and quantified with a time-resolved fluorescence technique. The results are shown in Table 1 as the IC50 values in nM.

For assay [2], the target named is T2, c-erbB-2 (baculovirus expressed, recombinant intracellular domain) (Homo sapiens, UniProt P04626).
T2 construct: recombinant constructs of the intracellular domains of c-erbB-2 and c-erbB4 that are constitutively active; made in house
T2 sequence (P04626 676-1255 limits assumed): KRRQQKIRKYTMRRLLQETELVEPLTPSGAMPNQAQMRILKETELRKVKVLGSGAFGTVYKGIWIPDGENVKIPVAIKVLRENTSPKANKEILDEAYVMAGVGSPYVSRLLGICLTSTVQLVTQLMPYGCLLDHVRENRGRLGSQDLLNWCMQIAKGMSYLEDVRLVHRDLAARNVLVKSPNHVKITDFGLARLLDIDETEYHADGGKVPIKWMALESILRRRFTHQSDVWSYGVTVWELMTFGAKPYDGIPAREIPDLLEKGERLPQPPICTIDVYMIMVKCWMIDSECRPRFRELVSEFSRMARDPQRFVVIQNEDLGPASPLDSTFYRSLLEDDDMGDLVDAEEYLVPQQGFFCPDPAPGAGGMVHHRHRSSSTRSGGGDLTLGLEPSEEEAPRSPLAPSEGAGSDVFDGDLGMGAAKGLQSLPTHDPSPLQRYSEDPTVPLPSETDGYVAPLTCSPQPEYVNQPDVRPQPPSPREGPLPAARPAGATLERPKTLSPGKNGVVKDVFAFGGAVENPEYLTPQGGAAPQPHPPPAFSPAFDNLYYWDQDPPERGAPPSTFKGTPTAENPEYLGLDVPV
Kind of assay: Substrate phosphorylation assay, c-erbB-2. Conditions: 30 minutes, room temperature, ATP and peptide at Km. Format: biochemical. As for the experimental part: The substrate phosphorylation assays use baculovirus expressed, recombinant constructs of the intracellular domains of c-erbB-2 and c-erbB4 that are constitutively active and EGFr isolated from solubilised A431 cell membranes. […] The reaction is stopped by the addition of EDTA (final concentration 0.15 mM) and a sample is transferred to a streptavidin-coated 96-well plate. The plate is washed and the level of phosphotyrosine on the peptide is determined using a Europium-labelled antiphosphotyrosine antibody and quantified with a time-resolved fluorescence technique. The results are shown in Table 1 as the IC50 values in nM.

Assay [3] deals with T3, c-erbB4 (baculovirus expressed, recombinant intracellular domain) (Homo sapiens, UniProt Q15303).
T3 construct: recombinant constructs of the intracellular domains of c-erbB-2 and c-erbB4 that are constitutively active; made in house
T3 sequence (Q15303 676-1308 limits assumed): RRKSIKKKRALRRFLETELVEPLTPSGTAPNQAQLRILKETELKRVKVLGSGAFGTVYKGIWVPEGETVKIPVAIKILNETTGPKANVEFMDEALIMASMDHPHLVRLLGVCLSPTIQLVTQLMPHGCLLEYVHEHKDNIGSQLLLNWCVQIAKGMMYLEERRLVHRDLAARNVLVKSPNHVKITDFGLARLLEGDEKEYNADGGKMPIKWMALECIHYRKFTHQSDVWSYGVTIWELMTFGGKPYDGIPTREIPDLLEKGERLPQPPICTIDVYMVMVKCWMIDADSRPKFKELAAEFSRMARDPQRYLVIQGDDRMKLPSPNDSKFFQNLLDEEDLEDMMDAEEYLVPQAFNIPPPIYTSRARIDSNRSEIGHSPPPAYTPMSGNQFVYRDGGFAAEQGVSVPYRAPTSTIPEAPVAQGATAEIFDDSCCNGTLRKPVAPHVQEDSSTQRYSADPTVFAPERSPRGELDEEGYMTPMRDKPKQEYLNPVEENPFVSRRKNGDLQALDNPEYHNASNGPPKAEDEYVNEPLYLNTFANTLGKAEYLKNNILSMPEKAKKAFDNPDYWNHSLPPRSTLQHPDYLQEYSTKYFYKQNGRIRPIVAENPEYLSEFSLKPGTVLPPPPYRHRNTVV
Kind of assay: Substrate phosphorylation assay, c-erbB4. The class given is biochemical. The conditions noted are these: 30 minutes, room temperature, ATP and peptide at Km; read-out: Substrate Phosphorylation erbB-4 IC50. The procedure:
as §1

Assay [4] concerns HB4a cell line transformed by over-expression of c-erbB-2. Kind of assay: Cell proliferation assay, HB4a erbB-2. Format: cell-based. Conditions: Homo sapiens, 96 h, 4 days, methylene blue staining. As for the experimental part: (§2) The cell proliferation assay uses an immortalised human breast epithelial cell line (HB4a) which has been transformed by over-expression of c-erbB-2. Growth of these cells in low serum is dependent upon the c-erbB-2 tyrosine kinase activity. […] Cells are plated at 3000/well in 96-well plates in […] medium and allowed to attach overnight. test compound is added in 0.1 ml medium, with a final concentration of 0.5% DMSO, and the plates incubated for 4 days at 37° C. The cells are then examined microscopically for evidence of morphological detransformation and cell mass is estimated by staining with methylene blue and measuring the absorbance at 620 nm. […] Activity against a range of naturally occurring EGFr or c-erbB-2 over-expressing human tumour cell lines (BT474-breast, HN5-head and neck, N87 gastric and Calu3-lung) is assessed with selected compounds by the same methodology.

Assay [5] relates to HB4a cell line transfected with ras. Kind of assay: Cell proliferation assay, HB4a ras. The conditions noted are these: Homo sapiens, 96 h, 4 days, methylene blue staining, general toxicity comparison. The class given is cell-based.
For assay [6], the system named is HN5-head and neck tumour cell line. Kind of assay: Cell proliferation assay, HN5. The conditions noted are these: Homo sapiens, 96 h, read-out: Cell Proliferation HN5 IC50. The class given is cell-based. The procedure:
as §2

In assay [7] the test system is N87 gastric tumour cell line. Kind of assay: Cell proliferation assay, N87. The class given is cell-based. Conditions: Homo sapiens, 96 h; 4 days, methylene blue staining. As for the experimental part: as §2
For assay [8], the system named is BT474-breast tumour cell line. Kind of assay: Cell proliferation assay, BT474. Format: cell-based. The conditions noted are these: Homo sapiens, BT-474, 96 h; 4 days, methylene blue staining. As for the experimental part:
as §2

In assay [9] the test system is Calu3-lung tumour cell line. Kind of assay: Cell proliferation assay, Calu3. The conditions noted are these: Homo sapiens, Calu-3, 96 h; 4 days, methylene blue staining. The class given is cell-based. As for the experimental part: as §2
The mark [10] stands for this setting: 4 days, methylene blue staining.

Turning to `c1ccc(COc2ccc(Nc3ncnc4cnc(-c5ccc(CN6CCCCC6)o5)cc34)cc2)cc1` [Example 1, (4-Benzyloxy-phenyl)-(6-(5-piperidin-1-ylmethyl)-furan-2-yl)-pyrido3,4-d]pyrimidin-4-yl)-amine hydrochloride], the IC50 in assay [1] stood at 0.17 µM; in assay [2], 0.07 µM; in assay [3], 1.4 µM.
For the compound `CN1CCN(Cc2ccc(-c3cc4c(Nc5ccc(OCc6ccccc6)cc5)ncnc4cn3)o2)CC1` [Example 2, (4-Benzyloxy-phenyl)-(6-(5-(4-methyl-piperazin-1-ylmethy)-furan-2-yl)pyrido[3,4-d]pyrimidin-4-yl)-amine], the IC50 was 0.17 µM in [1]; 0.06 µM in assay [2]; 0.76 µM in assay [3]; 0.43 µM in [4]; 2.1 µM in assay [5].
For the compound `CS(=O)(=O)CCNCc1ccc(-c2cc3c(Nc4ccc(OCc5ccccc5)cc4)ncnc3cn2)o1` [Example 3, 4-Benzyloxy-phenyl)-(6-(5-((2-methanesulphonyl-ethylamino)methyl)-furan-2-yl-pyrido[3,4-d]pyrimidin-4-yl)-amine hydrochloride], the IC50 in assay [1] was found to be 0.14 µM; in assay [2], 0.01 µM; in assay [3], 0.19 µM; in assay [4], 0.5 µM; in [5], 31 µM.
Regarding `COC(=O)CNCc1ccc(-c2cc3c(Nc4ccc(OCc5ccccc5)cc4)ncnc3cn2)o1` [Example 4, ((5-4-(4-Benzloxy-phenylamino)-pyrido[3,4-d]pyrimidin-6-yl)-furan-2-ylmethyl)-amino)-acetic acid methyl ester hydrochloride], the IC50 is 0.13 µM in assay [1]; 0.013 µM in [2]; 0.53 µM in [3]; 29 µM in [4]; 16 µM in assay [5].
For `c1ccc(COc2ccc(Nc3ncnc4cnc(-c5ccc(CNc6cccnc6)o5)cc34)cc2)cc1` [Example 5, (4-Benzyloxy-phenyl)-(6-(5-(pyridin-3-ylaminomethyl)-furan-2-yl)-pyrido[3,4-d]pyrimidin-4-yl)-amine] the same measures were 0.26 µM, 0.11 µM, 1.6 µM, 5.6 µM and 8.2 µM.
Taken in the same sequence, the figures for `CN(C)Cc1ccc(-c2cc3c(Nc4ccc(OCc5ccccc5)cc4)ncnc3cn2)o1` [Example 6, (4-Benzyloxy-phenyl)6-(5-(dimethyyaminomethyl)-furan-2-yl)pyrido[3,4-d]pyrimidin4-yl)-amine hydrochloride] were 0.38 µM, 0.098 µM, 2.4 µM, 1.5 µM and 2.2 µM.
Consider `NC(=O)[C@@H]1CCCN1Cc1ccc(-c2cc3c(Nc4ccc(OCc5ccccc5)cc4)ncnc3cn2)o1` [Example 7, (2S)-1-(5-(4-(4-Benzyloxy-phenylamino)-pyrido[3,4-d]pyrimidine-6-yl)-furan-2-ylmethyl)-pyrrolidine-2-carboxylic acid amide hydrochloride], for which the IC50 in assay [1] came out at 0.079 µM; in assay [2] it was 0.044 µM; in assay [3], 0.084 µM; in [4], 0.41 µM; in [5], 15 µM.
For `CC(=O)NCCNCc1ccc(-c2cc3c(Nc4ccc(OCc5ccccc5)cc4)ncnc3cn2)o1` [Example 9], the IC50 in assay [1] was 0.095 µM; in assay [2] it was 0.007 µM; in assay [3], 1 µM; in assay [4], 0.73 µM; in assay [5], 3.9 µM.
With `C[S+]([O-])CCNCc1ccc(-c2cc3c(Nc4ccc(OCc5ccccc5)cc4)ncnc3cn2)o1` (stereo not drawn) [Example 10, (4-Benzyloxy-phenyl)-(6-(5-((2-methanesulphinyl-ethylamino)-methyl)-furan-2-yl)-pyrido[3,4-d]pyrimidin-4-yl)-amine], the IC50 in assay [1] worked out at 0.14 µM; in [2], 0.022 µM; in assay [4] it was 0.25 µM; in [5], 8.7 µM.
Take `O=C(O)CNCc1ccc(-c2cc3c(Nc4ccc(OCc5ccccc5)cc4)ncnc3cn2)o1` [Example 11, ((5-(4-(4-Benzyloxy-phenylamino)-pyrido[3,4-d]pyrimidine-6yl)-furan-2-ylmethyl)-amino)-acetic acid hydrochloride]: the IC50 in assay [1] amounted to 0.088 µM; in assay [2] it was 0.019 µM; in assay [3], 0.45 µM; in assay [4], 50 µM; in [5], 5.9 µM.
`OCc1ccc(-c2cc3c(Nc4ccc(OCc5ccccc5)cc4)ncnc3cn2)o1` [Example 12, (5-4-(4-(4-Benzyloxy-phenylamino)-pyrido[3,4-d]pyrimidin-6-yl)-furan-2-yl)-methanol hydrochloride]: the IC50 in assay [1] amounted to 0.031 µM; in assay [2], 0.004 µM; in assay [3], 0.49 µM; in [4] it was 0.44 µM; in assay [5] it was 7.6 µM; in assay [6], 0.46 µM.
As to `NC(=O)[C@H]1CCCN1Cc1ccc(-c2cc3c(Nc4ccc(OCc5ccccc5)cc4)ncnc3cn2)o1` [Example 13, (2R)-1-{5-[4-(4-Benzyloxy-phenylamino)-pyrido[3,4-d]pyrimidin-6-yl]-furan-2-ylmethyl}pyrrolidine-2-carboxalic acid amide hydrochloride], the IC50 was 0.014 µM in assay [2]; 0.48 µM in [3]; 0.17 µM in assay [4]; greater than 50 µM in assay [5]; 0.35 µM in assay [6].
As for `CS(=O)(=O)CCCNCc1ccc(-c2cc3c(Nc4ccc(OCc5ccccc5)cc4)ncnc3cn2)o1` [Example 14], the IC50 in assay [2] was 0.42 µM; in assay [3], 3.9 µM.
On to `CN(CCS(C)(=O)=O)Cc1ccc(-c2cc3c(Nc4ccc(OCc5ccccc5)cc4)ncnc3cn2)o1` [Example 15], for which the IC50 came to 0.03 µM in assay [2], 1.5 µM in assay [3], 0.3 µM in [4] and 8.5 µM in assay [5].
With `CN(C)C(=O)[C@@H]1CCCN1Cc1ccc(-c2cc3c(Nc4ccc(OCc5ccccc5)cc4)ncnc3cn2)o1` [Example 16, (2S)-1-{-5-[4-(4-Benzyloxy-phenylamino)-pyrido[3,4-d]pyrimidin-6-yl]-furan-2-ylmethyl}-pyrrolidine-2-carboxylic acid dimethylamide], the IC50 was found to be 0.28 µM in [2]; 2.8 µM in assay [3]; 2.1 µM in [4]; 7.9 µM in [5]; 0.67 µM in [7]; 3.3 µM in assay [6] (setting [10]).
For `CS(=O)(=O)NCCNCc1ccc(-c2cc3c(Nc4ccc(OCc5ccccc5)cc4)ncnc3cn2)o1` [Example 17, N-(2-((5-(4-(4-Benzyloxy-phenylamino)-pyrido[3,4-d]pyrimidin-6-yl)-furan-2-ylmethyl)-amino)-ethyl)-methanesulphonamide hydrochloride], the IC50 in assay [2] is 0.029 µM; in [3], 0.76 µM; in assay [4] it was 0.25 µM; in assay [5], 3.5 µM; in [8], 0.1 µM; in assay [7], 0.15 µM. The results for the IC50 in assay [9] and in assay [6] (setting [10]) were 3.7 µM and 0.72 µM, respectively.
